Laboratory results taken from paper PMC12948427 (The Journal of Clinical Investigation, 2025).
Values joined by “and” are separate entries in the source; they are usually repeats but may differ in a detail not shown here. Identical values can stand only once. Like-named read-outs stand apart in the source and are kept apart here. Ends that are not written are not given here.

Legend:
MHV [1] = tested on: MHV
MHV [2] = assay type: cell-based, mouse hepatitis virus (MHV); conditions: RTB 0 uM
in vitro [3] = conditions: mouse, 17Cl-1 cells, cell viability, Figure S7E
in vitro [4] = conditions: Vero E6 cells, cell viability, Figure S7F
in vitro [5] = conditions: human, Calu-3 cells, cell viability, Figure S7G
M protein = assay: BFA treatment and washout: ER export of M protein in 17Cl-1 cells; assay type: cell-based; conditions: for Colocalization of M protein with ERGIC53 / Colocalization of M protein with SEC61B: individual replicate values, Figure S5A; for ERGIC53 (colocalization value, Figure S5B) / SEC61B (colocalization value, Figure S5B): individual replicates
Description: 70–80% confluent 17Cl-1 cells were treated with 5 µg/mL final BFA (Catalog no #HY-
16592; MCE) for 40 min at 37°C. BFA was washed out by three brief rinses in PBS and
cells were then incubated at 37°C for 5 h before fixation with 4% PFA.

SARS-CoV-2 Omicron BA.5 = assay type: in vivo, K18-hACE2 C57BL/6 mice

Compound: COc1ccc(N)cn1 [5-amino-2 methoxypyridine]
- cell viability, Figures S9A, B, D-F (17Cl-1 cells; concentration 0.01): 100
- cell viability, Figures S9A, B, D-F (17Cl-1 cells; concentration 0.03): 100
- cell viability, Figures S9A, B, D-F (17Cl-1 cells; concentration 0.1): 100
- cell viability, Figures S9A, B, D-F (17Cl-1 cells; concentration 0.3): 100
- cell viability, Figures S9A, B, D-F (17Cl-1 cells; concentration 1): 100
- cell viability, Figures S9A, B, D-F (17Cl-1 cells; concentration 3): 100
- cell viability, Figures S9A, B, D-F (17Cl-1 cells; concentration 10): 100
- cell viability, Figures S9A, B, D-F (17Cl-1 cells; concentration 25): 103.896
- viability of infected cells (rescue of cytopathic effect), Figures S9G-L (MHV [1]; concentration 10): 50.187 and 47.1573 and 49.7662
- viability of infected cells (rescue of cytopathic effect), Figures S9G-L (MHV [1]; concentration 30): 52.4593 and 51.6738 and 47.1012
- viability of infected cells (rescue of cytopathic effect), Figures S9G-L (MHV [1]; concentration 100): 53.2448 and 47.1573 and 49.2052
- viability of infected cells (rescue of cytopathic effect), Figures S9G-L (MHV [1]; concentration 300): 49.4576 and 49.4296 and 47.5781
- viability of infected cells (rescue of cytopathic effect), Figures S9G-L (MHV [1]; concentration 1000): 50.0187 and 48.055 and 47.0451
- viability of infected cells (rescue of cytopathic effect), Figures S9G-L (MHV [1]; concentration 3000): 52.3191 and 51.9824 and 49.121
- viability of infected cells (rescue of cytopathic effect), Figures S9G-L (MHV [1]; concentration 10000): 58.7432 and 53.4412 and 53.7217
- viability of infected cells (rescue of cytopathic effect), Figures S9G-L (MHV [1]; concentration 25000): 59.3884 and 60.7069 and 59.0799

Compound: CC(C)(C)[C@H](NC(=O)C(F)(F)F)C(=O)N1C[C@H]2[C@@H]([C@H]1C(=O)N[C@H](C#N)C[C@@H]1CCNC1=O)C2(C)C [nirmatrelvir]
- Inhibition, combination matrix (Figure S12D) (MHV [2]; nirmatrelvir 0.01 uM): -1.274
- Inhibition, combination matrix (Figure S12D) (MHV [2]; nirmatrelvir 0.03 uM): 3.148
- Inhibition, combination matrix (Figure S12D) (MHV [2]; nirmatrelvir 0.1 uM): 7.328
- Inhibition, combination matrix (Figure S12D) (MHV [2]; nirmatrelvir 0.3 uM): 49.1912
- Inhibition, combination matrix (Figure S12D) (MHV [2]; nirmatrelvir 1 uM): 73.8207
- Inhibition, combination matrix (Figure S12D) (MHV [2]; nirmatrelvir 3 uM): 76.6195
- Inhibition, combination matrix (Figure S12D) (MHV [2]; nirmatrelvir 10 uM): 79.1661
- Inhibition, combination matrix (Figure S12D) (MHV [2]; nirmatrelvir 25 uM): 76.9584

Compound: GRKKRRQRRRPPQDYKDDDDK [FLAG]
- cell viability, Figure S7E (17Cl-1 cells; peptide concentration 1000): 98.8246 and 101.437
- cell viability, Figure S7E (17Cl-1 cells; peptide concentration 4000): 100.566 and 104.919
- cell viability, Figure S7E (17Cl-1 cells; peptide concentration 8000): 94.9064
- cell viability, Figure S7E (17Cl-1 cells; peptide concentration 10000): 94.471 and 89.2468
- cell viability, Figure S7E (17Cl-1 cells; peptide concentration 20000): 89.6822
- cell viability, Figure S7E (17Cl-1 cells; peptide concentration 40000): 87.0701 and 87.9408
- cell viability, Figure S7E (17Cl-1 cells; peptide concentration 60000): 91.4236 and 94.9064
- cell viability, Figure S7E (17Cl-1 cells; peptide concentration 80000): 90.9882 and 92.2943
- cell viability, Figure S7E (17Cl-1 cells; peptide concentration 100000): 101.001 and 93.6003
- cell viability, Figure S7E (17Cl-1 cells; peptide concentration 200000): 85.764
- cell viability, Figure S7F (Vero E6 cells; peptide concentration 1000): 96.8531 and 94.4056
- cell viability, Figure S7F (Vero E6 cells; peptide concentration 2000): 104.196 and 103.846
- cell viability, Figure S7F (Vero E6 cells; peptide concentration 4000): 104.895
- cell viability, Figure S7F (Vero E6 cells; peptide concentration 6000): 106.643 and 105.594
- cell viability, Figure S7F (Vero E6 cells; peptide concentration 8000): 101.049 and 100.35
- cell viability, Figure S7F (Vero E6 cells; peptide concentration 10000): 105.594
- cell viability, Figure S7F (Vero E6 cells; peptide concentration 50000): 101.049 and 103.497
- cell viability, Figure S7F (Vero E6 cells; peptide concentration 400000): 94.0559 and 93.7063
- cell viability, Figure S7F (Vero E6 cells; peptide concentration 800000): 102.448
- cell viability, Figure S7G (Calu-3 cells; peptide concentration 1000): 98.6281 and 97.5158
- cell viability, Figure S7G (Calu-3 cells; peptide concentration 5000): 94.1787 and 96.4034
- cell viability, Figure S7G (Calu-3 cells; peptide concentration 10000): 96.4034 and 97.8865
- cell viability, Figure S7G (Calu-3 cells; peptide concentration 20000): 94.9203 and 96.4034
- cell viability, Figure S7G (Calu-3 cells; peptide concentration 40000): 95.6618 and 97.5158
- cell viability, Figure S7G (Calu-3 cells; peptide concentration 60000): 97.5158 and 96.0326
- cell viability, Figure S7G (Calu-3 cells; peptide concentration 80000): 96.4034
- cell viability, Figure S7G (Calu-3 cells; peptide concentration 100000): 97.8865
- cell viability, Figure S7G (Calu-3 cells; peptide concentration 400000): 98.6281 and 97.5158
- cell viability, Figure S7G (Calu-3 cells; peptide concentration 800000): 99.7405 and 96.0326
- viability at 24 h (in vitro [3]; peptide concentration 1000): 99.7%
- viability at 24 h (in vitro [3]; peptide concentration 4000): 102%
- viability at 24 h (in vitro [3]; peptide concentration 8000): 98%
- viability at 24 h (in vitro [3]; peptide concentration 10000): 97.5%
- viability at 24 h (in vitro [3]; peptide concentration 20000): 94%
- viability at 24 h (in vitro [3]; peptide concentration 40000): 78.8%
- viability at 24 h (in vitro [3]; peptide concentration 60000): 98.4%
- viability at 24 h (in vitro [3]; peptide concentration 80000): 84.5%
- viability at 24 h (in vitro [3]; peptide concentration 100000): 88.8%
- viability at 24 h (in vitro [3]; peptide concentration 200000): 84.9%
- viability at 24 h (in vitro [4]; peptide concentration 1000): 94.8%
- viability at 24 h (in vitro [4]; peptide concentration 2000): 101%
- viability at 24 h (in vitro [4]; peptide concentration 4000): 102%
- viability at 24 h (in vitro [4]; peptide concentration 6000): 106%
- viability at 24 h (in vitro [4]; peptide concentration 8000): 102%
- viability at 24 h (in vitro [4]; peptide concentration 10000): 105%
- viability at 24 h (in vitro [4]; peptide concentration 50000): 102%
- viability at 24 h (in vitro [4]; peptide concentration 100000): 105%
- viability at 24 h (in vitro [4]; peptide concentration 400000): 95.8%
- viability at 24 h (in vitro [4]; peptide concentration 800000): 101%
- viability at 24 h (in vitro [5]; peptide concentration 1000): 92%
- viability at 24 h (in vitro [5]; peptide concentration 5000): 88.6%
- viability at 24 h (in vitro [5]; peptide concentration 10000): 92%
- viability at 24 h (in vitro [5]; peptide concentration 20000): 89%
- viability at 24 h (in vitro [5]; peptide concentration 40000): 93.4%
- viability at 24 h (in vitro [5]; peptide concentration 60000): 90.5%
- viability at 24 h (in vitro [5]; peptide concentration 80000): 94.5%
- viability at 24 h (in vitro [5]; peptide concentration 100000): 94.2%
- viability at 24 h (in vitro [5]; peptide concentration 400000): 100%
- viability at 24 h (in vitro [5]; peptide concentration 800000): 96.8%

Compound: C[C@H]1CCC/C=C/[C@@H]2C[C@H](O)C[C@H]2[C@H](O)/C=C/C(=O)O1 [BFA, Brefeldin A]
- Colocalization of M protein with ERGIC53 (M protein; 5h BFA washout): 0.876 and 0.833 and 0.817
- Colocalization of M protein with SEC61B (M protein; 5h BFA washout): 0.423 and 0.481 and 0.508
- ERGIC53 (colocalization value, Figure S5B) (M protein; 5h BFA washout): 0.399 and 0.424 and 0.407
- SEC61B (colocalization value, Figure S5B) (M protein; 5h BFA washout): 0.895 and 0.946 and 0.906
- Colocalization of M protein with ERGIC53 (M protein; BFA treatment): 0.305 and 0.466 and 0.315
- Colocalization of M protein with SEC61B (M protein; BFA treatment): 0.951 and 0.905 and 0.916
- ERGIC53 (colocalization value, Figure S5B) (M protein; BFA treatment): 0.418 and 0.389 and 0.288
- SEC61B (colocalization value, Figure S5B) (M protein; BFA treatment): 0.951 and 0.926 and 0.886
- ER export of M protein (M protein; WT 17Cl-1 cells, 5 µg/mL BFA, 40 min): effectively blocked

Compound: CC(C)C(=O)OC[C@H]1O[C@@H](n2ccc(NO)nc2=O)[C@H](O)[C@@H]1O [Molnupiravir]
- Survival curves: per-mouse event code (SARS-CoV-2 Omicron BA.5; mouse, in vivo): 0
- body weight relative to start (Figure 5N) (SARS-CoV-2 Omicron BA.5; mouse, in vivo): 100
- pathological severity scores, lung tissues (SARS-CoV-2 Omicron BA.5; mouse, in vivo): 2 and 1
- body weight relative to start (Figure 5N) (SARS-CoV-2 Omicron BA.5; time 3): 98.8156 and 99.095 and 100.646 and 100.079 and 100.862 and 100.376 and 98.4711 and 101.287
- body weight relative to start (Figure 5N) (SARS-CoV-2 Omicron BA.5; time 5): 100.79 and 100.302 and 100.727 and 102.248 and 100.911 and 101.609 and 100.096 and 100.919
- body weight relative to start (Figure 5N) (SARS-CoV-2 Omicron BA.5; time 8): 102.338 and 103.472 and 103.062 and 103.016 and 101.448 and 100.239 and 100.322
- body weight relative to start (Figure 5N) (SARS-CoV-2 Omicron BA.5; time 10): 102.338 and 103.472 and 103.062 and 103.016 and 101.448 and 100.239 and 100.322
- Inhibition, combination matrix (Figure S12C) (MHV [2]; Molnupiravir 0.01 uM): -6.464
- Inhibition, combination matrix (Figure S12C) (MHV [2]; Molnupiravir 0.03 uM): -1.441
- Inhibition, combination matrix (Figure S12C) (MHV [2]; Molnupiravir 0.1 uM): -1.4813
- Inhibition, combination matrix (Figure S12C) (MHV [2]; Molnupiravir 0.3 uM): 3.455
- Inhibition, combination matrix (Figure S12C) (MHV [2]; Molnupiravir 1 uM): 0.7848
- Inhibition, combination matrix (Figure S12C) (MHV [2]; Molnupiravir 3 uM): 9.711
- Inhibition, combination matrix (Figure S12C) (MHV [2]; Molnupiravir 10 uM): 41.7804
- Inhibition, combination matrix (Figure S12C) (MHV [2]; Molnupiravir 25 uM): 66.457
